Assay results taken from patent publication US20240059703A1 (AMGEN INC., priority 2021, published 2024).

Legend:
[1] = test system: A549 (human lung carcinoma) cells; test: Cell Viability Assay (CellTiter-Glo), A549; format: cell-based
Method in brief: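 Seeding at 1.67E+04 cells/mL is followed by overnight attachment at 37° C., 5% CO2. Serially diluted compound is added for 72 h. Viability is read by CellTiter-Glo luminescence, scaled to DMSO and fitted (4-parameter logistic) to give IC50.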

KRAS G12C = KRAS G12C (Homo sapiens (Human), UniProt P01116, C118A/G12C); test: 2 h coupled exchange assay; format: biochemical; details: Avg 2 h Coupled exchange IC50, 2 h compound pre-incubation
Chain of KRAS G12C (P01116 other isoform, or with tags, fused parts or gaps G12C/C118A): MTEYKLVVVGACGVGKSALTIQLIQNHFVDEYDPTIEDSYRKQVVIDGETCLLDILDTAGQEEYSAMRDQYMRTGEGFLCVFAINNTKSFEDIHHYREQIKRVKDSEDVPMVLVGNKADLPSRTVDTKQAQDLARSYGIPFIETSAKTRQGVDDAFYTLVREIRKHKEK
Procedure: The term “2 h coupled exchange assay” or “20 h coupled exchange assay” as used herein refers to the assay described in the Section entitled “BIOLOGICAL EVALUATION.”

[2] = test system: MIA PaCa-2 (human pancreatic carcinoma) cells; test: Cell Viability Assay (CellTiter-Glo), MIA PaCa-2; format: cell-based
Procedure: Serially-diluted compound or DMSO was added to the cells, and plates were incubated at 37° C., 5% CO2 for 72 h. Cell viability was measured using a CellTiter-Glo® Luminescent Cell Viability Assay kit (Promega) according to the manufacturer's protocol. The luminescence signal of treated samples was normalized to DMSO control, and data were analyzed using a 4-parameter logistic model to calculate IC50 values.

[3] = SOS-mediated nucleotide exchange

Structure (SMILES)	IC50 ([1]; Homo sapiens, A549, 72 h)	IC50 (KRAS G12C; [3])	IC50 ([2]; Homo sapiens, MIA PaCa-2, 72 h)	IC50 (KRAS G12C)	IC50 ([1]; 72 h)	IC50 ([2]; 72 h)
C=CC(=O)N1CC2(CCN(c3nc4c(c(-c5c(C)ccc6[nH]ncc56)c3C#N)CCC4)C2)C1 [Example 1-3, 4-(5-methyl-1H-indazol-4-yl)-2-(2-(2-propenoyl)-2,6-diazaspiro[3.4]octan-6-yl)-6,7-dihydro-5H-cyclopenta[b]pyridine-3-carbonitrile]	7420 nM	154 nM	847 nM	–	–	–
C=CC(=O)N1CC2(CCN(c3nc(-c4c(C)ccc5[nH]ncc45)c4c(n3)N(C)CC4)C2)C1 [Example 5, 1-(6-(7-methyl-4-(5-methyl-1H-indazol-4-yl)-6,7-dihydro-5H-pyrrolo[2,3-d]pyrimidin-2-yl)-2,6-diazaspiro[3.4]octan-2-yl)prop-2-en-1-one]	> 25000 nM	181000 nM	12900 nM	–	–	–
C=CC(=O)N1CC2(CCN(c3nc4c(c(-c5cc(O)ccc5Cl)c3C)CCN(C3CCCN(C)C3)C4)C2)C1 [Example 18-11, 1-(6-(4-(2-chloro-5-hydroxyphenyl)-3-methyl-7-((3R)-1-methyl-3-piperidinyl)-5,6,7,8-tetrahydro-1,7-naphthyridin-2-yl)-2,6-diazaspiro[3.4]octan-2-yl)-2-propen-1-one|1-(6-(4-(2-chloro-5-hydroxyphenyl)-3-methyl-7-((3S)-1-methyl-3-piperidinyl)-5,6,7,8-tetrahydro-1,7-naphthyridin-2-yl)-2,6-diazaspiro[3.4]octan-2-yl)-2-propen-1-one]	> 5000 nM	–	174 nM	167 nM	–	–
C=CC(=O)N1CC2(CCN(c3nc(-c4ccccc4F)c4ccn([C@H](CC(=O)NC)CC(C)C)c4n3)C2)C1 (single isomer, unassigned) [Example 11]	12600 nM	1940 nM	1160 nM	–	–	–
C=CC(=O)N1CC2(CCN(c3nc4c(c(-c5c(C)ccc6[nH]ncc56)c3C)CCN(C(C)C)C4)C2)C1 (single isomer, unassigned) [Example 18-22, (M)-1-(6-(3-methyl-4-(5-methyl-1H-indazol-4-yl)-7-(2-propanyl)-5,6,7,8-tetrahydro-1,7-naphthyridin-2-yl)-2,6-diazaspiro[3.4]octan-2-yl)-2-propen-1-one]	–	–	–	6880 nM	> 20000 nM	804 nM
C=CC(=O)N1CC2(CCN(c3nc4c(c(-c5ccc(F)cc5F)c3C#N)CCN(c3scnc3C)C4)C2)C1 [Example 21-3, 4-(2,4-difluorophenyl)-7-(4-methyl-1,3-thiazol-5-yl)~2-(2-(2-propenoyl)-2,6-diazaspiro[3.4]octan-6-yl)-5,6,7,8-tetrahydro-1,7-naphthyridine-3~carbonitrile]	> 5000 nM	–	190 nM	25 nM	–	–
C=CC(=O)N1CC2(CCN(c3cc4c(c(-c5c(C)ccc6[nH]ncc56)c3C#N)COCC4)C2)C1 (single isomer, unassigned) [Example 2-100, (P)-8-(5-methyl-1H-indazol-4-yl)-6-(2-(2-propenoyl)-2,6-diazaspiro[3.4]octan-6-yl)-3,4-dihydro-1H-2-benzopyran-7-carbonitrile]	> 5000 nM	33 nM	25 nM	–	–	–
C=CC(=O)N1CC2(CCN(c3nc4c(c(-c5c(C)ccc(OC)c5N)c3C#N)COC(C)(C)C4)C2)C1 [Example 37-1, 4-(2-amino-3-methoxy-6-methylphenyl)-7,7-dimethyl-2-(2-(2-propenoyl)-2,6-diazaspiro[3.4]octan-6-yl)-7,8-dihydro-5H-pyrano[4,3-b]pyridine-3-carbonitrile]	> 25000 nM	–	96 nM	214 nM	–	–
C=CC(=O)N1CC2(CCN(c3nc4c(c(-c5ccccc5F)c3C#N)CCN(c3scnc3C)[C@H]4C)C2)C1 [Example 21-6, (8S)-4-(2-fluorophenyl)-8-methyl-7-(4-methyl-1,3-thiazol-5-yl)-2-(2-(2-propenoyl)-2,6-diazaspiro[3.4]octan-6-yl)-5,6,7,8-tetrahydro-1,7-naphthyridine-3-carbonitrile]	11200 nM	–	4570 nM	930 nM	–	–
